Series [1] deals with HCT116 cells. In words: MTT viability of HCT116 cells in basal conditions. The class given is cell-based, human. As to conditions: for IC50: Homo sapiens. Here is the method: (§1) HCT116 cell line (ATCC® CCL-247™) was cultured in DMEM (Euroclone) supplemented with 10% (v/v) heat-inactivated foetal bovine serum and 1.2% (v/v) penicillin G/streptomycin in 75 cm^2 tissue culture flask (n=5 individual culture flasks for each condition) as previously reported with or without serotonin treatment.
(§2) In the same condition, the kynurenic acid (KA) extracellular level was determined through a validated high performance liquid chromatography (HPLC)-fluorimetric method. To assess the cytotoxicity of synthesised compounds (VIa–o), a viability assay was performed on 96 microwell plates, using 3-(4,5-dimethylthiazol-2-yl)-2,5-diphenyltetrazolium bromide (MTT) test. Cells were incubated with compounds (10 µg/mL) for 24 h. An aliquot of 10 µL of MTT (5 mg/mL) was added to each well and incubated for 3 h. The viability of HCT116 cell line was evaluated both in basal conditions and after challenging with serotonin (5-HT) at 1 ng/mL. The anti-proliferative effects were compared to that induced by daunorubicin (0.1–20 µg/mL), used as reference drug.
Considering the effects induced by all compounds on HCT116 viability and KA production, compounds VIc, VIe and VIk were further assayed in order to deepen our knowledge about their anti-proliferative effects, in basal conditions. Specifically, HCT116 cells were stimulated with the aforementioned compounds, in a wider concentration range (0.1–20 µg/mL), with respect to the initial test. Additionally, the anti-proliferative effects induced by these compounds were compared with that of daunorubicin, used as anti-tumoral reference drug in the same concentration range.

Series [2] concerns kynurenic acid (KA) release from colon cancer HCT116 cells. Briefly: Extracellular kynurenic acid (KA) level of 5-HT-stimulated HCT116 cells (HPLC-fluorimetric). The conditions noted are these: for Effect on 5-HT-induced KA depletion: compounds 10 µg/mL, 5-HT 1 ng/mL, vs 5-HT group. The class given is cell-based, human. As for the experimental part:
as §1, §2
Furthermore, compounds were assayed for evaluating modulatory effects on the extracellular level of KA, one of the two main kynurenine metabolites. Kynurenic acid was reported to be produced in multiple tissues, including brain and peripheral organs, although pharmacokinetic studies excluded any possibility of the peripheral pool to cross blood-brain barrier. In the brain, the kynurenine-derived kynurenic acid was described as a reliable marker of neuroprotection[28]^,[29], whereas it seems to be involved in inflammatory response at the peripheral level. Kynurenic acid was also described as an anti-proliferative factor towards colon, renal, and glioma cells. Specifically, this marker was considered as a potential chemopreventive agent against colon cancer[32]^,[33]. […] They were able in potentiating 5-HT-induced KA depletion, as well.

For series [3], the system named is HCT116 cells. In words: Wound healing paradigm (spontaneous migration of HCT116 cells). The class given is cell-based, human. The conditions noted are these: compounds at their IC50 (VIe 3.09 µg/mL, VIk 2.73 µg/mL), 48 h after lesion of cell monolayer. As for the experimental part:
The detailed protocol related to wound healing experimental model was described in our previous article.
Finally, considering their potencies in reducing HCT116 cell viability, compounds VIe and VIk were further studied in order to evaluate their effects on the spontaneous migration of HCT116 cells, through the wound healing paradigm. In this experiment, HCT116 cells were treated with compounds VIe and VIk at their respective IC50 values. The spontaneous migration of HCT116 cells was monitored in the 48 h following the experimental lesion of cell monolayer. The null effects on sponstaneous migration (Figure 6) rule out any involvement of the tested compounds in altering the invasion capacity of human colon cancer cells.

Where [4] appears, read: HCT-116, basal conditions, concentration range 0.1–20 µg/mL, MTT test, read-out: IC50 (HCT116 cell viability).

≈ marks a conversion by molar mass, not a printed value. Where “and” joins values, the source holds several entries; their conditions need not be identical. Identical values can stand only once. Like-named read-outs stand apart in the source and are kept apart here.

`NCCc1c[nH]c2ccc(O)cc12` [Compound 5-HT, serotonin, reference compound]: the “Effect of 5-HT on HCT116 cell viability” value in the series on HCT116 cells [1] (5-HT 10 pg/mL – 1 µg/mL, MTT test) is “increased in a concentration-dependent manner”.

Usually melting point stands for the temperature of the solid-liquid transition. As for `COc1ccc(-c2ccc(=O)n(CC(=O)NN=Cc3ccccc3)n2)cc1F` [VIa, N’-benzylidene-2-(3-(3-fluoro-4-methoxyphenyl)-6-oxopyridazin-1(6H)-yl)acetohydrazide], the melting point was found to be 132 °C. In series [2], the “Effect on 5-HT-induced KA depletion” value was “failed to prevent the inhibition of KA level”. The molecule `COc1ccc(-c2ccc(=O)n(CC(=O)NN=Cc3ccc(F)cc3)n2)cc1F` [VIb, N’-(4-fluorobenzylidene)-2–(3-(3-fluoro-4-methoxyphenyl)-6-oxopyridazin-1(6H)-yl)acetohydrazide] yielded a melting point of 238 °C. In addition, the “Effect on 5-HT-induced KA depletion” value in series [2] is given as “failed to prevent the inhibition of KA level”. A word on the IC50: it is the concentration at which inhibition is half-maximal. Regarding `COc1ccc(-c2ccc(=O)n(CC(=O)NN=Cc3ccc(C(F)(F)F)cc3)n2)cc1F` [VIc, N’-(4-trifluoromethylbenzylidene)-2–(3-(3-fluoro-4-methoxyphenyl)-6-oxopyridazin-1(6H)-yl)acetohydrazide], the melting point came out at 252 °C. The “KA level compared to basal condition (CTR group)” value in series [2] (compound 10 µg/mL, 5-HT-stimulated HCT116 cells) was “even higher compared to basal condition”. Besides, in series [2], the “Effect on 5-HT-induced KA depletion” value is listed as “able to blunt 5-HT-induced KA depletion”. Besides, the IC50 with HCT116 cells [1] (setting [4]) was determined as 15 µg/mL (≈ 33.5 µM). For the same molecule, in the series with HCT116 cells [1] (basal conditions, HCT116 viability), the “IC50 fold higher compared to daunorubicin” value is given as “at least 10 fold”. With `COc1ccc(-c2ccc(=O)n(CC(=O)NN=Cc3ccccc3F)n2)cc1F` [VId, N’-(2-fluorobenzylidene)-2–(3-(3-fluoro-4-methoxyphenyl)-6-oxopyridazin-1(6H)-yl)acetohydrazide], the melting point is 222 °C and 224 °C. With `COc1ccc(-c2ccc(=O)n(CC(=O)NN=Cc3ccccc3C)n2)cc1F` [VIe, N’-(2-methylbenzylidene)-2–(3-(3-fluoro-4-methoxyphenyl)-6-oxopyridazin-1(6H)-yl)acetohydrazide], the melting point was found to be 210 °C. In addition, in the series on HCT116 cells [1] (setting [4]), the IC50 was determined as 3.09 µg/mL (≈ 7.83 µM). Besides, in the series with HCT116 cells [3], the “Effect on spontaneous migration of HCT116 cells” value is on record as “null effects”. On to `COc1ccc(-c2ccc(=O)n(CC(=O)NN=Cc3ccccc3OC)n2)cc1F` [VIf, N’-(2-methoxybenzylidene)-2–(3-(3-fluoro-4-methoxyphenyl)-6-oxopyridazin-1(6H)-yl)acetohydrazide], for which the melting point was determined as 214 °C. On the same count and under the same terms, next, `COc1ccc(-c2ccc(=O)n(CC(=O)NN=Cc3ccc(C)cc3)n2)cc1F` [VIg, N’-(4-methylbenzylidene)-2–(3-(3-fluoro-4-methoxyphenyl)-6-oxopyridazin-1(6H)-yl)acetohydrazide]: 220 °C. Regarding `COc1ccc(C=NNC(=O)Cn2nc(-c3ccc(OC)c(F)c3)ccc2=O)cc1` [VIh, N’-(4-methoxybenzylidene)-2–(3-(3-fluoro-4-methoxyphenyl)-6-oxopyridazin-1(6H)-yl)acetohydrazide], the melting point was 207 °C. Same read-out and setting: next, `COc1ccc(-c2ccc(=O)n(CC(=O)NN=Cc3ccc([N+](=O)[O-])cc3)n2)cc1F` [VIi, N’-(4-nitrobenzylidene)-2–(3-(3-fluoro-4-methoxyphenyl)-6-oxopyridazin-1(6H)-yl)acetohydrazide]: 265 °C; `COc1ccc(-c2ccc(=O)n(CC(=O)NN=Cc3ccc(C(C)C)cc3)n2)cc1F` [VIj, N’-(4-isopropylbenzylidene)-2–(3-(3-fluoro-4-methoxyphenyl)-6-oxopyridazin-1(6H)-yl)acetohydrazide]: 164 °C. With `COc1ccc(-c2ccc(=O)n(CC(=O)NN=Cc3ccccc3Br)n2)cc1F` [VIk, N’-(2-bromobenzylidene)-2–(3-(3-fluoro-4-methoxyphenyl)-6-oxopyridazin-1(6H)-yl)acetohydrazide], the melting point was found to be 189 °C. For the same molecule, the IC50 with HCT116 cells [1] (setting [4]) is 2.73 µg/mL (≈ 5.94 µM). In addition, in the series on HCT116 cells [3], the “Effect on spontaneous migration of HCT116 cells” value is given as “null effects”.

Consider `COc1ccc(-c2ccc(=O)n(CC(=O)NN=Cc3ccc(Br)cc3)n2)cc1F` [VIm, N’-(4-bromobenzylidene)-2–(3-(3-fluoro-4-methoxyphenyl)-6-oxopyridazin-1(6H)-yl)acetohydrazide], for which the melting point came to 256 °C. In turn, `COc1ccc(-c2ccc(=O)n(CC(=O)NN=Cc3ccc(O)cc3)n2)cc1F` [VIn, N’-(4-hydroxybenzylidene)-2–(3-(3-fluoro-4-methoxyphenyl)-6-oxopyridazin-1(6H)-yl)acetohydrazide] registered a melting point of 251 °C.

As to `COc1ccc(-c2ccc(=O)n(CC(=O)NN=Cc3ccc(Cl)cc3Cl)n2)cc1F` [VIo, N’-(2,4-dichlorobenzylidene)-2–(3-(3-fluoro-4-methoxyphenyl)-6-oxopyridazin-1(6H)-yl)acetohydrazide], the melting point came out at 229 °C. On to `COc1cccc2c1C(=O)c1c(O)c3c(c(O)c1C2=O)C[C@@](O)(C(C)=O)C[C@@H]3O[C@H]1C[C@H](N)[C@H](O)[C@H](C)O1` [daunorubicin, reference compound], for which the IC50 with HCT116 cells [1] (HCT-116, read-out: IC50 (HCT116 cell viability)) is 1.39 µg/mL (≈ 2.63 µM).

Source of the values: paper PMC7191905, “Synthesis and biological evaluation of new 3(2H)-pyridazinone derivatives as non-toxic anti-proliferative compounds against human colon carcinoma HCT116 cells” (Journal of Enzyme Inhibition and Medicinal Chemistry, 2020).
